From publication PMC2653189 (PLoS ONE, 2009)
Read-outs that look alike come from different tables or passages of the source. Values belong to the compound of their own block, whether it stands above or below them.

What was measured:
[1] = test system: MDA-MB-231 xenografts; design: method as in PMID 17463090; details: 5 mg/kg every 2–3 days; cited from earlier work
[2] = biological target: T1, Stat3 (Homo sapiens, UniProt P40763); design: method as in PMID 16220982; details: fluorescence polarization; read-out: IC50 inhibition of Stat3 binding to pY-peptide; cited from earlier work
T1 sequence (P40763 whole entry, species assumed): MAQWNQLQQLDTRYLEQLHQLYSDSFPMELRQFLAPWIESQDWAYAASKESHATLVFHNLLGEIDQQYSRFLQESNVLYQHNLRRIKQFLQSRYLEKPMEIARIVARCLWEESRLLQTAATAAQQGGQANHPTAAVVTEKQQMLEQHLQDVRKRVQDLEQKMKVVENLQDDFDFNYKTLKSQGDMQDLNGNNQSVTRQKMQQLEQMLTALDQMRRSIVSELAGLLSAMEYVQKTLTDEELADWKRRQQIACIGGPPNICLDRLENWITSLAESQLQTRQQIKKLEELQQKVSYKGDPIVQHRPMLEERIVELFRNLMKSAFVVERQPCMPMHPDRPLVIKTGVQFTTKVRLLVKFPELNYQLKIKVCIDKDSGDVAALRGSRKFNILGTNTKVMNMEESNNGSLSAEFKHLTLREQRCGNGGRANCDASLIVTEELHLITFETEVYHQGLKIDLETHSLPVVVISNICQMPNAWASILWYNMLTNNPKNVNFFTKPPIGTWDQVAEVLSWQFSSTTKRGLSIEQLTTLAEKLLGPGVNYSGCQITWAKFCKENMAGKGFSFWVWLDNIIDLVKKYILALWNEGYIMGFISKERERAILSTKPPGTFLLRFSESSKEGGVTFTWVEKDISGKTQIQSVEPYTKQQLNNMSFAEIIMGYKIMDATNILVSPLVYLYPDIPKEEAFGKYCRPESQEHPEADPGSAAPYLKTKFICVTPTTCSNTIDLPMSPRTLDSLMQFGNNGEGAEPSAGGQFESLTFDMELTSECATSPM

[3] = test system: breast cancer cell lines tested; assay: Apoptosis assay, all breast cancer cell lines tested; type: cell-based, Human; details: any of the breast cancer cell lines tested; data not shown
Experimental: Human breast carcinoma cell lines MDA-MB-468, MDA-MB-231, MBA-MD-435 and MCF7 were kindly provided by Dr. Powel H. Brown (Breast Cancer Center, Baylor College of Medicine). Breast cancer cell line, MDA-MB-453 was kindly provided by Dr. Shou Jiang (Breast Cancer Center, Baylor College of Medicine). All cell lines were grown in DMEM medium supplemented with 10% fetal bovine serum (FBS), 25,000 units penicillin G, 25,000 µg streptomycin, and 131.4 mg L-Glutamine and cultured in the incubator under the condition of 95% air, 5% CO2 at 37°C [33]. Cells were seeded at 2,500 cells/cm^2 into 12-well plates. At 80% confluency, cells were washed with PBS and supplemented with fresh medium containing compound or the topoisomerase I-inhibitor, camptothecin, at 0, 0.1, 0.3, 1, 3, 10, 30, 100, 300 µM. At 24 hours, treatment was terminated by removing the medium from each well. Cells were lysed with cell lysis buffer (600 µl for 30 minutes at 25°C). […] The percent maximum nucleosome level was calculated by dividing the nucleosome level by the maximum nucleosome level achieved in the assay and multiplying by 100. This value was plotted as a function of the log compound concentration and the best-fitting curve and EC50 value determined using 4-Parameter Logistic Model/Dose Response/XLfit 4.2, IDBS software.

[4] = test system: IFN-γ-mediated Stat1 phosphorylation; assay: Immunoblot of IFN-γ-mediated Stat1 phosphorylation in HepG2 cells; type: cell-based, human; details: compound 300 µM 1 hour, IFN-γ 30 ng/ml 30 min
Experimental: (§1) The human hepatocellular carcinoma cell line (HepG2) was grown in 6-well plates under standard conditions. Cells were pretreated with compounds (0, 1, 3, 10, 30, 100 and 300 µM) for 1 hour then stimulated under optimal conditions with either interleukin-6 (IL-6; 30 ng/ml for 30 min) to activate Stat3 or interferon gamma (IFN-γ; 30 ng/ml for 30 min) to activate Stat1 [28]. Cultures were then harvested and proteins extracted using high-salt buffer, as described. Briefly, extracts were mixed with 2× sodium dodecyl sulfate (SDS) sample buffer (125 mM Tris-HCL pH 6.8; 4% SDS; 20% glycerol; 10% 2-mercaptoethanol) at a 1∶1 ratio and heated for 5 minutes at 100°C. Proteins (20 µg) were separated by 7.5% SDS-PAGE and transferred to polyvinylidene fluoride (PVDF) membrane (Millipore, Waltham, MA) and immunoblotted. Prestained molecular weight markers (BioRad; Hercules, CA) were included in each gel. Membranes were probed serially with antibody against Stat1 pY701 or Stat3 pY705 followed by antibody against Stat1 or Stat3 (Transduction labs, Lexington, KY) then antibody against β–actin (Abcam, Cambridge, MA). Membranes were stripped between antibody probing using Restore™ Western Blot Stripping Buffer (Thermo Fisher Scientific Inc., Waltham, MA) per the manufacturer's instructions. Horseradish peroxidase-conjugated goat-anti-mouse IgG was used as the secondary antibody (Invitrogen Carlsbad, CA) and the membranes were developed with enhanced chemiluminescence (ECL) detection system (Amersham Life Sciences Inc.; Arlington Heights, IL.).
Figure 2 Effect of compounds on ligand-mediated Stat3 and Stat1 phosphorylation. […] Cells were then stimulated with IL-6 (30 ng/ml) for 30 min. Protein extracts of cells were separated by SDS-PAGE, blotted and developed serially with antibodies to pStat3, total Stat3 and β-actin. Blots were stripped between each antibody probing. Band intensities were quantified by densitometry. The value of each pStat3 band was divided by its corresponding total Stat3 band intensity; the results were normalized to the DMSO-treated control value. This value was plotted as a function of the log compound concentration. The best-fitting curve was determined using 4-Parameter Logistic Model/Dose Response/XLfit 4.2, IDBS software and was used to calculate the IC50 value (Table 1). Each panel is representative of 3 or more experiments. In panel G, HepG2 cells were pretreated with DMSO alone or DMSO containing each of the compounds at a concentration of 300 µM for 60 min. Cells were then stimulated with IFN-γ (30 ng/ml) for 30 min. Protein extracts of cells were separated by SDS-PAGE and immunoblotted serially with antibodies to pStat1, total Stat1 and β-actin. Blots were stripped between each immunoblotting. The results shown are representative of 2 or more experiments.

[5] = test system: IL-6-mediated phosphorylation of Stat3; assay: Immunoblot of IL-6-mediated Stat3 phosphorylation in HepG2 cells; type: cell-based; details: Homo sapiens, compound 60 min, then IL-6 30 ng/ml 30 min, read-out: pStat3 IC50, inhibition of IL-6-mediated Stat3 phosphorylation
Experimental: as §1
Figure 2 Effect of compounds on ligand-mediated Stat3 and Stat1 phosphorylation. […] Cells were then stimulated with IL-6 (30 ng/ml) for 30 min. Protein extracts of cells were separated by SDS-PAGE, blotted and developed serially with antibodies to pStat3, total Stat3 and β-actin. Blots were stripped between each antibody probing. Band intensities were quantified by densitometry. […] The best-fitting curve was determined using 4-Parameter Logistic Model/Dose Response/XLfit 4.2, IDBS software and was used to calculate the IC50 value (Table 1). […]

[6] = biological target: T1, Stat3; assay: Stat3/pY-peptide binding assay (SPR, BIAcore); details: recombinant Stat3 500 nM; immobilized EGFR Y1068 phosphododecapeptide; 25°C; read-out: SPR IC50, inhibition of Stat3 binding to pY peptide ligand
Experimental: A control (Stat3 with DMSO but without compound) was run at the beginning and the end of each cycle (40 sample injections) to ensure that the integrity of the sensor chip was maintained throughout the cycle run. The average of the two controls was normalized to 100% and used to evaluate the effect of each compound on Stat3 binding. Responses were normalized by dividing the value at 2 min by the response obtained in the absence of compounds at 2 min and multiplying by 100.

[7] = test system: IL-6-mediated Stat3 nuclear translocation (GFP-Stat3α); assay: HTFM nuclear translocation assay in MEF/GFP-Stat3α cells; type: cell-based, murine; details: Mus musculus, compound 1 hour, then IL-6 200 ng/ml and IL-6sR 250 ng/ml 30 min, read-out: HTFM IC50, inhibition of IL-6-mediated Stat3 nuclear translocation
Experimental: Confocal and high-throughput fluorescence microscopy (HTFM) of MEF/GFP-Stat3α cells were performed as described. Briefly, for confocal fluorescence microscopy, cells were grown in 6-well plates containing a cover slip. For HTFM, cells were seeded into 96-well CC3 plates at a density of 5,000 cells/well using an automated plating system. Cells were cultured under standard conditions until 85–90% confluent. Cells were pre-treated with compound for 1 hour at 37°C then stimulated with IL-6 (200 ng/ml) and IL-6sR (250 ng/ml) for 30 minutes to provide optimal Stat3 activation and nuclear translocation in these cells, as described. Cells were fixed with 4% formaldehyde in PEM Buffer (80 mM Potassium PIPES, pH 6.8, 5 mM EGTA pH 7.0, 2 mM MgCl2) for 30 minutes at 4°C, quenched in 1 mg/ml of NaBH4 (Sigma) in PEM buffer and counterstained for 1 min in 4,6-diamidino-2-phenylindole (DAPI; Sigma; 1 mg/ml) in PEM buffer. Cover slips were examined by confocal fluorescent microscopy. Plates were analyzed by automated HTFM using the Cell Lab IC Image Cytometer (IC100) platform and Cytoshop Version 2.1 analysis software (Beckman Coulter). Nuclear translocation is quantified by using the fraction localized in the nucleus (FLIN) measurement. FLIN values were normalized by subtracting the FLIN for unstimulated cells then dividing this difference by the maximum difference (delta, Δ) in FLIN (FLIN in cells stimulated with IL-6/sIL-6R in the absence of compound minus FLIN of unstimulated cells). This ratio was multiplied by 100 to obtain the percentage of maximum difference in FLIN and was plotted, where indicated, as a function of the log compound concentration. The best-fitting curve and IC50 value were determined using 4-Parameter Logistic Model/Dose Response/XLfit 4.2, IDBS software.
Figure 4 Inhibition of cytoplasmic-to-nuclear translocation of Stat3 assessed by confocal and high-throughput fluorescence microscopy (HTFM). […] Coverslips were examined by confocal fluorescent microscopy using filters to detect GFP (column one), DAPI (column two) or both (merge; column three). In panel B, MEF-GFP-Stat3 cells were grown in 96-well plates with optical glass bottoms and pre-treated with the indicated compound at the indicated concentrations in quadruplicate for 1 hour then stimulated with IL-6 (200 ng/ml) and IL-6sR (250 ng/ml) for 30 minutes. Cells were fixed and the plates were examined by high-throughput microscopy to determine the fluorescence intensity in the nucleus (FLIN). The percent of maximum change (delta, Δ) in FLIN was calculated as described in the Methods and plotted as a function of the log of the compound concentration. […] Best-fit curves were determined using 4-Parameter Logistic Model/Dose Response/XLfit 4.2, IDBS software and were used to calculate the IC50 values (Table 2).

Compound: Cc1ccc(S(=O)(=O)OCC(=O)Nc2ccc(C(=O)O)c(O)c2)cc1 [S3I-201]
- Xenograft growth [1]: inhibited growth

Compound: hydrocinnamoyl-Tyr(PO3H2)-Leu-cis-3,4-methanoPro-Gln-NHB
- IC50 [2]: 0.125 µM

- IC50 [5]: 144 µM
- IC50 [6]: 256 µM
- IC50 [7]: 150 µM
Compound: CCOc1cc(C=C2C(=O)c3ccccc3C2=O)cc(Cl)c1OCc1cccc(C(=O)O)c1 [Cpd3-2, 3-({2-chloro-4-[(1,3-dioxo-1,3-dihydro-2H-inden-2-ylidene)methyl]-6-ethoxyphenoxy}methyl)benzoic acid]
- Apoptosis induction (in words) [3]: neither Cpd3-2 nor Cpd3-7 induced apoptosis
- Block of IFN-γ-stimulated Stat1 phosphorylation [4]: did not
